No end group written: not given here.

These results are taken from patent US20120046224A1, “TREATMENT OF DIABETES AND METABOLIC SYNDROME” (NORDIC BIOSCIENCE A/S, priority 2009, published 2012).

Data set [1] in a line: Body weight and whole body composition (MR scanning) in DIO rats. Conditions: once daily oral, Calcitonin 2 mg/kg/day with 5-CNAC 150 mg/kg/day, or 5-CNAC 150 mg/kg/day alone. Format: in vivo, rat. The protocol: (§1) A total of 48 selectively bred male DIO rats were used. At the beginning of the experiment, the animals had reached an age of 35 weeks, out of which 31 weeks were on high-fat diet.
(§2) At day −7, 21 and 42 fasted serum and urine samples were collected and whole body tissue composition was evaluated by MR scanning. At day 42, an oral glucose tolerance test (OGTT) was performed to evaluate glucose homeostasis in the rats. At day −1 the animals were stratified according to weight and whole body fat mass (assessed by a 4-in-1 EchoMRI scanner) to the different treatment groups. The groups were randomized in three teams by body weight.
First day of dosing was day 0. Animals were dosed per oral 5 ml/kg. The compound solution was administered once daily at 7:00 AM-2:00 PM during the whole study (0-42 days) per oral gavage using a gastric tube connected to a 5 ml syringe (luer lock™. Becton).
To assess the distribution of the gained weight during the treatment program the animals were subjected to MR analysis after termination. Two parameters were investigated: 1) change in fatty mass and, 2) change in total water content.

In data set [2] the test system is DIO rats. Kind of data set: Oral glucose tolerance test (OGTT) in DIO rats. It is filed as in vivo, rat. On the procedure:
as §1, §2
First day of dosing was day 0. Animals were dosed per oral 5 ml/kg.
In order to test the glucose handling in different treatment groups, an oral glucose tolerance test (OGTT) was performed.

The conditions of data set [3]: cited from earlier work.
The conditions of data set [4]: rats fed a high fat diet, delivered by osmotic pump; cited from earlier work.
The subject of data set [5] is rat hepatocytes. Particulars: cited from earlier work.
For data set [6] the following is noted: cited from earlier work. The source holds these as a separate data set.
For data set [7] the following is noted: cited from earlier work. The source holds these as a separate data set.
The conditions of data set [8]: 100 U by i.v. infusion; cited from earlier work.
The conditions of data set [9]: Paget's disease of the bone patients, injection; cited from earlier work.
For data set [10] the following is noted: healthy test persons, infusion; cited from earlier work.

For `O=C(O)CCCCCCCNC(=O)c1cc(Cl)ccc1O` [5-CNAC, N-(5-chlorosalicyloyl)-8-aminocaprylic acid], the “change in body weight” value in data set [1] is given as “Neither the CT treated group nor the 5-CNAC group display any change in their body weight”. Also, the “plasma insulin response during OGTT” value in data set [2] (peak 15 minutes after glucose, CT compared to 5-CNAC group) is on record as “the levels stay in the hyperinsulinaemic state throughout the OGTT”. Also, the “maximum / peak blood glucose level during OGTT” value in data set [2] (reached 15 minutes after OGTT (CT), at 60 minutes (5-CNAC)) came to 9.8 mM.

Take “amylin (KCNTATCATQRLANFLVHSSNNFGAILSSTNVGSNTY; not fully specified (C-terminus, bridges); cysteine pairing not given here; UniProt P10997 34-70, looked up) [calcitonin family peptide hormone, literature results]”: the plasma glucose entry in data set [3] (in the absence of a meal) is recorded as “associated with a rise in plasma glucose in rodents, but not in humans”. Moreover, in data set [3] (in the context of a meal, rats, dogs and humans), the “rise in plasma glucose” value is given as “suppressed a rise in plasma glucose”. In addition, the weight gain entry in data set [4] is given as “caused a reduction in weight gain”. Also, in data set [5], the “effect on rat hepatocytes and other cells” value was “little effect”. Further, the glucose levels result in [6] (fasting animals, parenterally administered) is recorded as “a rise in glucose levels”. The “rise in glucose in oral glucose tolerance test” value in [6] (rats, parenterally administered shortly before the test) is “reduced the rise in glucose”.

For calcitonin, the glycemic recovery entry in data set [7] (hypoglycaemic rat, compared to glucagon) is recorded as “a greater glycemic recovery than glucagon”. For the same molecule, in [8], the “glycaemia in the course of an OGTT” value is on record as “a persistence of hyperglycaemia” and the insulin secretion result was “An inhibitory action of calcitonin on insulin secretion was also observed”.

With “human calcitonin (CGNLSTCMLGTYTQDFNKFHTFPQTAIGVGAP; ends and bridges not checked; cysteine pairing not given here; listed as Homo sapiens)”, in [9], the “serum glucose and serum insulin” value was “a moderate immediate rise in serum glucose and a slight decrease in serum insulin”. Also, the “glucose assimilation and insulin output” value in data set [10] was “significant impairment of glucose assimilation and insulin output”.

For “rat calcitonin (CGNLSTCMLGTYTQDLNKFHTFPQTSIGVGAP; ends and bridges not checked; cysteine pairing not given here)”, in data set [5], the “effect on rat hepatocytes and other cells” value is given as “little effect”. The fasting plasma glucose entry in data set [7] (rats and mice, intravenous bolus injection) is recorded as “a lesser effect”.
